According to patent US9388139B2, “Derivatives of celeboxib, use thereof and preparation thereof” (German University, priority 2011, dated 2016):
Read-outs that look alike come from different tables or passages of the source.

Experiments:
recombinant human PDE5 = recombinant human PDE5 (Homo sapiens (Human), UniProt O76074); assay: PDE5 inhibition, IMAP fluorescence polarization assay; format: biochemical; settings: read-out: IC50 μM against PDE5
Procedure: (§1) Compounds according to the present disclosure were tested for their in vitro ability to inhibit recombinant human PDE5, COX1 and COX2 enzymes at screening doses of 50, 100 and 100 μM respectively.
PDE activity was measured using the IMAP fluorescence polarization assay (Molecular Devices) in which binding of hydrolyzed cyclic nucleotide substrate to immobilized metal coordination complexes increases fluorescence polarization (FP). Tetramethylrhodamine (TAMRA)-cGMP and fluorescein-cAMP were used as substrates, each at final concentration of 50 nmol/L. The PDE assay was done according to the manufacturer's specifications using either whole cell lysates or recombinant enzymes.

COX2 = COX2 (Ovis aries (Sheep), UniProt P79208); assay: COX-2 activity, colorimetric assay; format: biochemical, ovine; settings: screening dose 100 μM; read-out: IC50 μM against COX2
Procedure: as §1
(§2) COX-1 and COX-2 activities were measured using purified ovine COX-1 and COX-2 with colorimetric assay kits obtained from Cayman Chemical Co. (Ann Arbor, Mich.). The activities of COX-1 and COX-2 were measured after the addition of arachidonic acid and incubation at 25° C. for 5 min by absorbance at 590 nm as specified by the manufacturer.

[1] = tested on: human colorectal HT-29 tumor cell line; assay: Tumor cell growth assay (Cell Titer Glo); format: cell-based; settings: read-out: IC50 μM against HT-29
[2] = tested on: human breast MDA-MB-231 tumor cell line; assay: Tumor cell growth assay (Cell Titer Glo); format: cell-based; settings: read-out: IC50 μM against MDA-MB-231
COX1 = COX1 (Ovis aries (Sheep), UniProt P05979); assay: COX-1 activity, colorimetric assay; format: biochemical, ovine; settings: screening dose 100 μM; read-out: IC50 μM against COX1
Procedure: as §1, §2

[3] = recombinant human PDE5, IC50 determined if inhibition >50% at 50 μM screening dose

Sequence of COX2 (P79208 17-603): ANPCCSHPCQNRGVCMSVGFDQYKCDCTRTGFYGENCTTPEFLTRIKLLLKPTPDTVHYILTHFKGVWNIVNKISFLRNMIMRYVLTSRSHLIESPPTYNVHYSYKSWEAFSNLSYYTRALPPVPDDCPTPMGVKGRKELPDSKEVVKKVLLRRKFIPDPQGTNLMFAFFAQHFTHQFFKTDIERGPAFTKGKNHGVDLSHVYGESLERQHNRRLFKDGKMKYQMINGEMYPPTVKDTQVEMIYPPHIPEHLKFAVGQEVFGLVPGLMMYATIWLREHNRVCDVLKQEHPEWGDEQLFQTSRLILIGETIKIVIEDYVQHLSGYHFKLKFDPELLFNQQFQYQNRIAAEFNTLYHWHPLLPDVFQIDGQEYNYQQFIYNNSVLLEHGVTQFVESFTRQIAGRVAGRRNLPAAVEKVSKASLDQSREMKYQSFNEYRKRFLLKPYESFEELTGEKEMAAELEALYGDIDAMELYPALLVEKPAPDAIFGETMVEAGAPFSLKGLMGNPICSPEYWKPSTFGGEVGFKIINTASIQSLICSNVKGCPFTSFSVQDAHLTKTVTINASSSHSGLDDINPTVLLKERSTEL
Sequence of COX1 (P05979 25-600): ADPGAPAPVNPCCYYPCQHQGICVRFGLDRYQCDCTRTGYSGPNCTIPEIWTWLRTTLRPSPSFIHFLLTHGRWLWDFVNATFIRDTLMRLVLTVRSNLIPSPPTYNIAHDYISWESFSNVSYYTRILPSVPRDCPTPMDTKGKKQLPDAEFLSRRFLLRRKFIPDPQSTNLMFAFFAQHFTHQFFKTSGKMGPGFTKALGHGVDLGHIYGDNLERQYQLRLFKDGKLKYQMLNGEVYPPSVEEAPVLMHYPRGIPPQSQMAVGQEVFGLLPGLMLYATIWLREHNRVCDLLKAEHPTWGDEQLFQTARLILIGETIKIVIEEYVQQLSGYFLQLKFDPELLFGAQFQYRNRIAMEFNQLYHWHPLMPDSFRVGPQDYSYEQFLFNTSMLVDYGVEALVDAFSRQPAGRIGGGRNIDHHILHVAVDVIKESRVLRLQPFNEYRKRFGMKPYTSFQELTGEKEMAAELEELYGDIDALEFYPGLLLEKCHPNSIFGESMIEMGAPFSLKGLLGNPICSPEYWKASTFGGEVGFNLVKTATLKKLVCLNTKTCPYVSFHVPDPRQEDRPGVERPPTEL

Structure (SMILES) | IC50 (recombinant human PDE5; [3]) [µM] | IC50 (COX2) [µM] | IC50 ([1]; HT-29, 72 hours) [µM] | IC50 ([2]; MDA-MB-231, 72 hours) [µM] | IC50 (COX1) [µM] | IC50 ([1]; 72 hours) [µM] | IC50 ([2]; 72 hours) [µM] | IC50 (recombinant human PDE5) [µM]
COc1ccc(C2CC(C(C)(C)C)=NN2c2ccc(C(=O)O)cc2)cc1 (stereo not shown) [Compound 1, 4-(3-tert-Butyl-5-(4-methoxyphenyl)-4,5-dihydro-1H-pyrazol-1-yl)benzoic acid] | 2.02 | > 100 | > 50 | > 50 | > 100 | – | – | –
CC(C)(C)C1=NN(c2ccc(C(=O)O)cc2)C(c2ccc([N+](=O)[O-])cc2)C1 (stereo not shown) [Compound 2, 4-(3-tert-Butyl-5-(4-nitrophenyl)-4,5-dihydro-1H-pyrazol-1-yl)benzoic acid] | 5.7 | > 100 | > 50 | > 50 | > 100 | – | – | –
CC(C)(C)C1=NN(c2ccc(C(=O)O)cc2)C(c2cccc([N+](=O)[O-])c2)C1 (stereo not shown) [Compound 3, 4-(3-tert-Butyl-5-(3-nitrophenyl)-4,5-dihydro-1H-pyrazol-1-yl)benzoic acid] | 3.2 | > 100 | – | – | > 100 | > 50 | > 50 | –
COc1ccc(C2CC(C(C)(C)C)=NN2c2ccc(C(=O)O)cc2)c(OC)c1 (stereo not shown) [Compound 4, 4-(3-tert-Butyl-5-(2,4-dimethoxyphenyl)-4,5-dihydro-1H-pyrazol-1-yl)benzoic acid] | – | > 100 | > 50 | > 50 | > 100 | – | – | 23.5
CC(C)(C)C1=NN(c2ccc(C(=O)O)cc2)C(c2ccc(O)cc2)C1 (stereo not shown) [Compound 5, 4-(3-tert-Butyl-5-(4-hydroxyphenyl)-4,5-dihydro-1H-pyrazol-1-yl)benzoic acid] | 2.1 | > 100 | > 50 | > 50 | > 100 | – | – | –
CC(C)(C)C1=NN(c2cccc(C(=O)O)c2)C(c2ccc(Cl)cc2)C1 (stereo not shown) [Compound 6, 3-(3-tert-Butyl-5-(4-chlorophenyl)-4,5-dihydro-4H-pyrazol-1-yl)benzoic acid] | 9.9 | > 100 | 39.9 | > 50 | > 100 | – | – | –
COc1ccc(C2CC(c3ccccc3)=NN2c2ccc(C(=O)O)cc2)cc1 (stereo not shown) [Compound 7, 4-(5-(4-Methoxyphenyl)-3-phenyl-4,5-dihydro-1H-pyrazol-1-yl)benzoic acid] | 1.2 | > 100 | 36.7 | 48 | > 100 | – | – | –
COc1ccc(C2CC(c3ccccc3OC)=NN2c2ccc(C(=O)O)cc2)cc1 (stereo not shown) [Compound 8, 4-(3-(2-Methoxyphenyl)-5-(4-methoxyphenyl)-4,5-dihydro-1H-pyrazol-1-yl)benzoic acid] | 3.2 | > 100 | > 50 | > 50 | > 100 | – | – | –
COc1ccc(C2CC(c3cccc(OC)c3)=NN2c2ccc(C(=O)O)cc2)cc1 (stereo not shown) [Compound 9, 4-(3-(3-Methoxyphenyl)-5-(4-methoxyphenyl)-4,5-dihydro-1H-pyrazol-1-yl)benzoic acid] | 1.8 | > 100 | 25.9 | 45.6 | > 100 | – | – | –
COc1ccc(C2CC(c3ccc(OC)c(OC)c3)=NN2c2ccc(C(=O)O)cc2)cc1 (stereo not shown) [Compound 10, 4-(3-(3,4-Dimethoxyphenyl)-5-(4-methoxyphenyl)-4,5-dihydro-1H-pyrazol-1-yl)benzoic acid] | 6.9 | > 100 | 42.5 | > 50 | > 100 | – | – | –
COc1ccc(C2CC(c3ccccc3)=NN2c2ccc(S(N)(=O)=O)cc2)cc1 (stereo not shown) [Compound 11, 4-(5-(4-Methoxyphenyl)-3-phenyl-4,5-dihydro-1H-pyrazol-1-yl)benzenesulfonamide] | 3.8 | > 100 | 15.6 | 27.6 | > 100 | – | – | –
CC(C)(C)C1=NN(c2ccc(C(=O)O)cc2)C(c2ccc(Cl)c(Cl)c2)C1 (stereo not shown) [Compound 13, 4-(3-(tert-Butyl)-5-(3,4-dichlorophenyl)-4,5-dihydro-1H-pyrazol-1-yl)benzoic acid] | 5.5 | > 100 | 25.7 | > 50 | > 100 | – | – | –
CC(C)(C)C1=NN(c2ccc(C(=O)O)cc2)C(c2ccccc2Br)C1 (stereo not shown) [Compound 14, 4-(5-(2-Bromophenyl)-3-(tert-butyl)-4,5-dihydro-1H-pyrazol-1-yl)benzoic acid] | 6.9 | > 100 | 39.6 | > 50 | > 100 | – | – | –
CCOc1ccc(C2CC(C(C)(C)C)=NN2c2ccc(C(=O)O)cc2)cc1 (stereo not shown) [Compound 15, 4-(3-(tert-Butyl)-5-(4-ethoxyphenyl)-4,5-dihydro-1H-pyrazol-1-yl)benzoic acid] | 2.9 | > 100 | 6 | > 50 | > 100 | – | – | –
CC(C)(C)C1=NN(c2ccc(C(=O)O)cc2)C(c2cccc(Br)c2)C1 (stereo not shown) [Compound 16, 4-(5-(3-Bromophenyl)-3-(tert-butyl)-4,5-dihydro-1H-pyrazol-1-yl)benzoic acid] | 3.1 | > 100 | 8.8 | > 50 | > 100 | – | – | –
CC(C)(C)C1=NN(c2ccc(C(=O)O)cc2)C(c2ccccc2Cl)C1 (stereo not shown) [Compound 17, 4-(3-(tert-Butyl)-5-(2-chlorophenyl)-4,5-dihydro-1H-pyrazol-1-yl)benzoic acid] | 1.9 | > 100 | 20.8 | > 50 | > 100 | – | – | –
CC(C)(C)C1=NN(c2ccc(C(=O)O)cc2)C(c2ccccc2F)C1 (stereo not shown) [Compound 18, 4-(3-(tert-Butyl)-5-(2-fluorophenyl)-4,5-dihydro-1H-pyrazol-1-yl)benzoic acid] | 3.3 | > 100 | > 50 | > 50 | > 100 | – | – | –
CC(C)(C)C1=NN(c2ccc(C(=O)O)cc2)C(c2cccc(F)c2)C1 (stereo not shown) [Compound 19, 4-(3-(tert-Butyl)-5-(3-fluorophenyl)-4,5-dihydro-1H-pyrazol-1-yl)benzoic acid] | 2.7 | > 100 | > 50 | > 50 | > 100 | – | – | –
CCOc1ccccc1C1CC(C(C)(C)C)=NN1c1ccc(C(=O)O)cc1 (stereo not shown) [Compound 20, 4-(3-(tert-Butyl)-5-(2-ethoxyphenyl)-4,5-dihydro-1H-pyrazol-1-yl)benzoic acid] | 2 | > 100 | – | – | > 100 | 22 | > 50 | –
CC(C)(C)C1=NN(c2ccc(C(=O)O)cc2)C(c2ccc(Cl)cc2)C1 (stereo not shown) [Compound 21, 4-(3-tert-Butyl-5-(4-chlorophenyl)-4,5-dihydro-1H-pyrazol-1-yl)benzoic acid] | 8.7 | > 100 | > 50 | > 50 | > 100 | – | – | –
CC(C)(C)C1=NN(c2ccc(C(=O)O)cc2)C(c2ccccc2)C1 (stereo not shown) [Compound 22, 4-(3-tert-Butyl-5-phenyl-4,5-dihydro-1H-pyrazol-1-yl)benzoic acid] | 6.22 | > 100 | > 50 | > 50 | > 100 | – | – | –
Cc1ccc(C2CC(C(C)(C)C)=NN2c2ccc(C(=O)O)cc2)cc1 (stereo not shown) [Compound 23, 4-(3-tert-Butyl-5-p-tolyl-4,5-dihydro-1H-pyrazol-1-yl)benzoic acid] | 8.4 | > 100 | > 50 | > 50 | > 100 | – | – | –
CC(C)(C)C1=NN(c2ccc(C(=O)O)cc2)C(c2ccc(Br)cc2)C1 (stereo not shown) [Compound 24, 4-(5-(4-Bromophenyl)-3-tert-butyl-4,5-dihydro-1H-pyrazol-1-yl)benzoic acid] | 7.7 | > 100 | > 50 | > 50 | > 100 | – | – | –
CC(C)(C)C1=NN(c2ccc(S(=O)(=O)O)cc2)C(c2ccc(F)cc2)C1 (stereo not shown) [Compound 25, 4-(3-tert-Butyl-5-(4-fluorophenyl)-4,5-dihydro-1H-pyrazol-1-yl)benzenesulfonic acid] | 3.3 | > 100 | > 50 | > 50 | > 100 | – | – | –
CC(C)(C)C1=NN(c2ccc(S(=O)(=O)O)cc2)C(c2ccc(Cl)cc2)C1 (stereo not shown) [Compound 26, 4-(3-tert-Butyl-5-(4-chlorophenyl)-4,5-dihydro-1H-pyrazol-1-yl)benzenesulfonic acid] | 7.2 | > 100 | > 50 | > 50 | > 100 | – | – | –
COc1ccc(C2CC(c3ccc(F)cc3)=NN2c2ccc(C(=O)O)cc2)cc1 (stereo not shown) [Compound 27, 4-(3-(4-Fluorophenyl)-5-(4-methoxyphenyl)-4,5-dihydropyrazol-1-yl)benzoic acid] | 3.1 | > 100 | > 50 | > 50 | > 100 | – | – | –
